The source of these data is patent US20130041036A1, “FERULIC ACID AS FEED SUPPLEMENT IN BEEF CATTLE TO PROMOTE ANIMAL GROWTH AND IMPROVE THE MEAT QUALITY OF THE CARCASS AND THE MEAT” (BIOKAB, S.A. DE C.V., priority 2011, published 2013).

Marks after values point to notes of the source that are not given here.

The subject of one assay is beef cattle. Briefly: Feedlot performance and carcass quality of beef cattle. The format is in vivo, beef cattle of commercial breeds. The settings on record: last 30 days of fattening. The source says: In this study, all animals received the same prophylactic management, and all were subsequently assigned randomly to one of the following four treatments (25 animals per treatment, divided into pens of 5 experimental units per pen):
Definition of the 4 Treatments
Treatment 1 (Control): control animals (receiving only the basal diet without supplementation of the additive).
Treatment 2 (Ferulic Acid for 30 days=FA30): Animals receiving the basal diet supplemented with 240 ppm of ferulic acid during the last 30 days of the fattening period.
Treatment 3 (Ferulic Acid for 60 days=FA60): Animals receiving the basal diet supplemented with 240 ppm of ferulic acid during the last 60 days of the fattening period.
Treatment 4 (Zilmax commercial Zilpaterp; =ZX): Animals receiving the basal diet and supplemented with 6 ppm hydrochloride zilpaterol during the last 30 days of the fattening period.
During the experimental phase, all animals received a feeding ration consisting of 20% fodder and 80% concentrate. The crop was corn stover, while the concentrate consisted of different proportions of rolled corn grain, soybean meal, canola meal, distillery grains, and molasses. The ration was provided twice a day, and there was free access to the food and drinking water.
Initial and final live weight was recorded in the productive performance trial. The performance test lasted 60 days. Daily feed intake was evaluated, weight was recorded at the beginning and end of experimental period, in order to estimate the average daily gain and feed conversion.
Before concluding the performance test, 2 animals were randomly selected per pen (10 per treatment) for humanitarian slaughter. The animals were sacrificed following the standard procedures of the official Mexican standards in the municipal slaughterhouse of Guadalajara, Jalisco. Animal live weight was recorded before slaughter.
During the slaughter process, the pH of the carcass at 45 min postmortem in the Longissimus dorsi muscle (LD) was measured and the weight of the hot carcass was recorded. The carcasses were refrigerated at 0° C. for 24 hr. After this, the final pH was measured and cold carcass weight recorded, and the classification of carcasses was carried out, recording the Rib eye area (REA) in square inches, back fat thickness (BFT) in mm, and the marbling in the 12th intercostal space of the LD; the skeletal maturity and conformation of the carcass was also evaluated (10 carcasses per treatment). The assessment of quality of the carcass was made following the procedures described by the US Department of Agriculture (USDA, 2000).
All data for response variables of the quality of carcass and meat were analyzed under a completely randomized design, with a one-way ANOVA, taking the experimental treatments as a fixed effect. For carcass BFT and REA characteristics the hot carcass weight was used as a covariable. Regarding the sensory attributes, the model also included the effect of panelist as the repeated measure. The variables of the shelf life study were analyzed as a completely randomized design with factorial arrangement, factor A being the treatment with 4 levels, and factor B, the storage time with 5 levels. When there were statistical differences (P<0.05) between treatments, average comparisons were performed by the multiple range test of Tukey. All data was processed in the NCSS statistical package (NCSS, 2001).

Assay [1] relates to Longissimus dorsi muscle. As to the kind of experiment: Chemical and physicochemical quality of Longissimus dorsi muscle from supplemented cattle. The format is in vivo, beef cattle of commercial breeds. Particulars: 240 ppm ferulic acid (FA30) or 6 ppm zilpaterol hydrochloride (ZX), last 30 days of fattening. The method, then: (§1) Subsequent to the carcass classification the rib eye cut (LD muscle) was obtained of the left side of each selected carcass. Meat samples were identified, vacuum packed, frozen at -18° C., and then shipped under refrigeration by air courier to the Centro de Investigación en Alimentacion y Desarrollo A.C. (CIAD) facilities at Hermosillo, Sonora, to perform quality analysis of the meat: Chemical analysis (moisture and fat content), physicochemical (objective color parameters L*, which measures the brightness of the meat, a* value, which measures the redness, and b* value which measures the tendency towards yellowness, and hue-angle, Warner-Bratzler shear force, water retention capacity and pH). A sensory test was done by a trained panel consisting of 10 members using a descriptive test with a semi-structured 10 cm scale, where zero indicates a […] of the attribute and a 10 indicates a favorable rating (e.g. tenderness, zero indicates extremely hard and 10 extremely tender). The sensory attributes that were measured: total color and overall appearance of raw meat, flavor, odor, color, tenderness, fat perception, juiciness, and perception of connective tissue in cooked meat. […] To measure cooking loss, the meat sample was weighed before and immediately after reaching the final cooking temperature, which was expressed in percentage. All data for response variables of the quality of carcass and meat were analyzed under a completely randomized design, with a one-way ANOVA, taking the experimental treatments as a fixed effect. For carcass BFT and REA characteristics the hot carcass weight was used as a covariable. Regarding the sensory attributes, the model also included the effect of panelist as the repeated measure. The variables of the shelf life study were analyzed as a completely randomized design with factorial arrangement, factor A being the treatment with 4 levels, and factor B, the storage time with 5 levels. When there were statistical differences (P<0.05) between treatments, average comparisons were performed by the multiple range test of Tukey.

Assay [2] concerns Longissimus dorsi muscle. Briefly: Sensory test of Longissimus dorsi meat by trained panel. Format: in vivo, beef cattle of commercial breeds. The settings on record: FA30 240 ppm or ZX 6 ppm, last 30 days of fattening. The method, then: as §1
Another assay relates to feedlot steers. Particulars: steers supplemented with ractopamine compared to the control; cited from earlier work.
Where [3] appears, read: 240 ppm ferulic acid (FA30) or 6 ppm zilpaterol hydrochloride (ZX) in diet.
Setting [4] is: 240 ppm ferulic acid (FA30) or 6 ppm zilpaterol hydrochloride (ZX).
Setting [5] is: cooked meat, semi-structured 10 cm scale.
The mark [6] stands for this setting: raw meat, semi-structured 10 cm scale.

In the case of `CC(C)N[C@@H]1CCn2c(=O)[nH]c3cccc(c32)[C@H]1O.Cl` [ZX, zilpaterol hydrochloride, reference compound], in the assay with beef cattle (setting [3]), the “CY: carcass yield” value is 61.53^b %, the “FW: final weight” value worked out at 579.4 kg and the “HCW: hot carcass weight” value was found to be 356.34 kg. Also, in the assay on beef cattle (240 ppm ferulic acid (FA30) or 6 ppm zilpaterol hydrochloride (ZX) in diet, carcass 24 hr at 0° C.), the “CCW: cold carcass weight” value is 350.62 kg. In addition, in the assay with beef cattle (setting [4]), the “BFT: back fat thickness” value worked out at 3.05 mm, the “PH24: pH at 24 h postmortem” value is listed as 5.63 and the “REA: rib eye area” value is 15.41 Inch^2. Further, the “PH45: pH at 45 min postmortem” value in the assay on beef cattle (Longissimus dorsi, 240 ppm ferulic acid (FA30) or 6 ppm zilpaterol hydrochloride (ZX)) is given as 6.17^a. In addition, in the assay on Longissimus dorsi muscle [1], the Cooking loss is listed as 19.20^b %, the Fat content was found to be 2.36%, the Hue angle is 36.05 and the Moisture turned out to be 73.02%. For the same compound, the “WHC: water holding capacity” value with Longissimus dorsi muscle [1] came out at 25.13%. For the same compound, the “SF: shear force” value in the assay with Longissimus dorsi muscle [1] (Warner-Bratzler) was 10.37^b kg F. The “L* value” with Longissimus dorsi muscle [1] (fresh meat brightness) is 35.34. The “a* value” in the assay on Longissimus dorsi muscle [1] (fresh meat redness) is given as 16.39. Moreover, in the assay on Longissimus dorsi muscle [1] (fresh meat yellowness), the “b* value” turned out to be 11.95. This compound had a pH with Longissimus dorsi muscle [1] (meat) of 5.57. In the assay on Longissimus dorsi muscle [2] (cooked meat, 10 cm scale, zero extremely hard, 10 extremely tender), the Tenderness is 6.85^a. In the assay on Longissimus dorsi muscle [2] (setting [5]), the Connective tissue perception came out at 1.42, the Fat perception is on record as 3.34, the Flavor intensity was 6.56^a and the Juiciness was 6.00^a. In the assay on Longissimus dorsi muscle [2] (setting [5]), this compound showed an Odor intensity of 7.89. Further, in the assay on Longissimus dorsi muscle [2] (setting [6]), the Appearance came to 7.17 and the “Overall Color” value is recorded as 7.41.
Turning to `CC(CCc1ccc(O)cc1)NCC(O)c1ccc(O)cc1` (stereo not drawn) [ractopamine], in the assay on feedlot steers, the “shear force of meat” value is “significant increase in the shear force”.
